Measurements taken from ChEMBL document CHEMBL3044802, “Synthesis, in vitro antimicrobial and antioxidant activities of chalcone and flavone derivatives holding allylic substitutions” (Med Chem Res, 2011).
In brackets after ≈: the same amount, converted by molar mass.

Assays:
Format in all cases: functional
Kluyveromyces marxianus = assay: Antimicrobial activity against Kluyveromyces marxianus after overnight incubation by conventional agar-dilution method
Escherichia coli = assay: Antimicrobial activity against Escherichia coli after overnight incubation by conventional agar-dilution method
[1] = test system: Radical scavenging activity; assay: Antioxidant activity assessed as DPPH free radical scavenging activity after 30 min by UV-VIS spectrophotometer analysis
[2] = test system: Staphylococcus epidermidis; assay: Antimicrobial activity against Staphylococcus epidermidis after overnight incubation by conventional agar-dilution method
Staphylococcus aureus = assay: Antimicrobial activity against Staphylococcus aureus after overnight incubation by conventional agar dilution method
[3] = Antioxidant activity assessed as Fe2+ reducing power after 20 min

Structure (SMILES) | MIC (Kluyveromyces marxianus) | MIC (Escherichia coli) | IC50 [1] | MIC [2] | MIC (Staphylococcus aureus) | IC50 [3]
OC(Cn1cncn1)(Cn1cncn1)c1ccc(F)cc1F [FLUCONAZOLE] | 4 µg/mL (≈ 13.1 µM) | – | – | – | – | –
C=CCOc1ccc(/C=C/C(=O)c2cccc(CC=C)c2O)cc1OC | 512 µg/mL (≈ 1460 µM) | 512 µg/mL (≈ 1460 µM) | 85 µM | > 1000 µg/mL | > 1000 µg/mL | 2960 nM
Cc1cc(NS(=O)(=O)c2ccc(N)cc2)no1 [SULFAMETHOXAZOLE] | – | 4 µg/mL (≈ 15.8 µM) | – | 4 µg/mL (≈ 15.8 µM) | 4 µg/mL (≈ 15.8 µM) | –
C=CCOc1c(OC)cccc1-c1cc(=O)c2cccc(CC=C)c2o1 | 512 µg/mL (≈ 1470 µM) | > 512 µg/mL | 320 µM | > 1000 µg/mL | > 1000 µg/mL | 1110 nM
C=CCOc1ccc(-c2cc(=O)c3cccc(CC=C)c3o2)cc1OC | > 512 µg/mL | > 512 µg/mL | 270 µM | > 1000 µg/mL | > 1000 µg/mL | 570 nM
C=CCOc1c(/C=C/C(=O)c2cccc(CC=C)c2O)cccc1OC | 512 µg/mL (≈ 1460 µM) | 512 µg/mL (≈ 1460 µM) | 163 µM | > 1000 µg/mL | > 1000 µg/mL | 1870 nM
Cc1c(C)c2c(c(C)c1O)CCC(C)(C(=O)O)O2 (stereo not given) [TROLOX] | – | – | 36 µM | – | – | 41900 nM
